Data as given in BigSolDB 2.1.

O=C1C(CCS(=O)c2ccccc2)C(=O)N(c2ccccc2)N1c1ccccc1 (stereo not drawn)
solubility (mole fraction)
Details | 283.15 K | 288.15 K | 293.15 K | 298.15 K | 303.15 K | 308.15 K | 313.15 K | 318.15 K | 323.15 K
in 2-butanone | 0.0136 | 0.0157 | 0.0199 | 0.0241 | 0.0288 | 0.0333 | 0.0388 | 0.0495 | 0.0601
in acetone | 0.0138 | 0.0165 | 0.02 | 0.0244 | 0.0293 | 0.0371 | 0.0452 | 0.0524 | 0.0745
in acetonitrile | 0.0131 | 0.0155 | 0.0213 | 0.0265 | 0.0334 | 0.0474 | 0.0648 | 0.0799 | 0.103
in ethanol | 0.00156 | 0.00211 | 0.0027 | 0.00356 | 0.0045 | 0.00542 | 0.00719 | 0.00956 | 0.0137
in isopropanol | 0.000256 | 0.000609 | 0.00104 | 0.00204 | 0.00302 | 0.0045 | 0.00583 | 0.0071 | 0.00937
in methanol | 0.0026 | 0.00318 | 0.00401 | 0.00508 | 0.00679 | 0.00864 | 0.0114 | 0.0176 | 0.0278
in methyl acetate | 0.00978 | 0.0109 | 0.0139 | 0.0161 | 0.0195 | 0.0222 | 0.0272 | 0.0345 | 0.0485
in n-butanol | 0.00169 | 0.00245 | 0.00314 | 0.00438 | 0.00592 | 0.00724 | 0.00971 | 0.0129 | 0.0166
in n-pentanol | 0.00284 | 0.00357 | 0.00429 | 0.0053 | 0.00627 | 0.00725 | 0.00824 | 0.00921 | 0.0109
in n-propanol | 0.00198 | 0.00266 | 0.00347 | 0.00485 | 0.00617 | 0.00752 | 0.0101 | 0.0132 | 0.0183
in sec-butanol | 0.0024 | 0.00301 | 0.00388 | 0.0047 | 0.00546 | 0.00655 | 0.00876 | 0.0109 | 0.0156
in water | 3.6e-05 | 6.32e-05 | 0.000111 | 0.000176 | 0.000264 | 0.000352 | 0.000479 | 0.000615 | 0.000777
